Results as given in patent US4036979A, “Compositions containing 4,5,6,7-tetrahydrobenz[b]thien-4-yl-ureas or derivatives and methods of enhancing growth rate” (American Cyanamid Company, priority 1976, dated 1977).
Where “and” joins values, the source holds several entries; their conditions need not be identical. Identical values can stand only once.

Columns and labels:
[1] = Chick tests: growth promotion and feed/gain, 13 days, compound in basal diet; format: in vivo, chicks; details: for Average 13-day Chick/Gain (g), AV. / Average 13-day Feed/Gain, AV.: average of 4 experiments; for Average 13-day Chick/Gain / Average 13-day Feed/Gain: experiments 1928, 1929, 1930, 1931; for Percent Improvement (13-day chick gain) / Percent Improvement (13-day feed/gain): vs control
Method: The following tests were conducted to evaluate the ability of 4,5,6,7-tetrahydrobenzo[b]thien-4-ylurea to promote growth in chicks.
In these tests day-old chicks are placed in heated cages and given feed and water ad libitum. In each test there are 5 male and 5 female chicks per cage and three cages per treatment are used. Treatments consist of a basal diet plus 1,3 or 9 ppm. of test compound. The chicks are weighed at the beginning and end of the experiment. Feed consumption is determined for the experimental period which is 13 days beginning when the chicks are one day old.

[2] = Growth enhancement and feed efficiency in sheep given an implant containing test compound (six weeks); format: in vivo, sheep (Wether lambs); details: for Average 6-Week Feed/Gain per Pen, AV. / Average 6-Week Weight Gain (kg.)/Lamb, AV.: average of 6 replications; for Average 6-Week Feed/Gain per Pen / Average 6-Week Weight Gain (kg.)/Lamb: replications 1 to 6
Source text: To determine the effect of a 4,5,6,7-tetrahydrobenzo[b]thien-4-ylurea compound on sheep, Wether lambs are randomly allotted to pens in groups of six. The sheep are weighed and permitted food and water ad libitum. The feed is weighed daily, and uneaten feed from the previous day is collected and weighed. Test lambs receive the same unmedicated diet as control animals, but test animals receive one or more subcutaneous implants containing test compound at the base of the ear. The formulation of the implant used is given below. At the end of the six-week treatment period, the lambs are again weighed, and total feed consumed is calculated.
In these tests, six replicates of six lambs each per treatment are used and each animal receives from about 11 mg. to 105 mg. of test compound.

[3] = Growth enhancement and feed efficiency improvement in sheep fed levels of test compounds (six weeks); format: in vivo, sheep (Wether lambs); details: for Average Daily Gain (kg)/Lamb, av. / Six-Week Feed/Gain, av.: average of 5 replications; for Average Daily Gain (kg)/Lamb / Six-Week Feed/Gain: replications 1 to 5
Source text: To determine the effect of feeding experimental compounds on sheep performance, Wether lambs are randomly allotted to pens in groups of six. The sheep are weighed and permitted feed and water ad libitum. The feed is weighed daily, and uneaten feed from the previous day is collected and weighed. Test lambs receive the same diet as control animals but with the addition of experimental compound at a concentration of either 15 or 60 ppm. At the end of the six-week treatment period, the lambs are again weighed, and total feed is calculated.
In these tests, five replicates of six lambs each per treatment are used.

[4] = Mouse Growth Regulant Tests (12-day weight gain over controls, compound in diet); format: in vivo, CFI female mice; details: Mus musculus, feed or water, 288 h, Table VI

NC(=O)NC1CCCc2sccc21 (stereo not drawn) [4,5,6,7-tetrahydrobenzo[b]thien-4-ylurea]
Average 13-day Chick/Gain (g), AV. ([1]; 1 ppm): 189 g
Average 13-day Feed/Gain, AV. ([1]; 1 ppm): 1.46
Average 13-day Chick/Gain ([1]; 1 ppm): 181 g and 193 g and 182 g and 200 g
Average 13-day Feed/Gain ([1]; 1 ppm): 1.48 and 1.45 and 1.49 and 1.44
Percent Improvement (13-day chick gain) ([1]; 1 ppm): 3.3%
Percent Improvement (13-day feed/gain) ([1]; 1 ppm): 2.7%
Average 13-day Chick/Gain (g), AV. ([1]; 3 ppm): 195 g
Average 13-day Feed/Gain, AV. ([1]; 3 ppm): 1.43
Average 13-day Chick/Gain ([1]; 3 ppm): 199 g and 186 g and 197 g and 198 g
Average 13-day Feed/Gain ([1]; 3 ppm): 1.47 and 1.40 and 1.44
Percent Improvement (13-day chick gain) ([1]; 3 ppm): 6.6%
Percent Improvement (13-day feed/gain) ([1]; 3 ppm): 4.7%
Average 13-day Chick/Gain (g), AV. ([1]; 9 ppm): 193 g
Average 13-day Feed/Gain, AV. ([1]; 9 ppm): 1.44
Average 13-day Chick/Gain ([1]; 9 ppm): 190 g and 198 g and 191 g
Average 13-day Feed/Gain ([1]; 9 ppm): 1.45 and 1.46 and 1.40
Percent Improvement (13-day chick gain) ([1]; 9 ppm): 5.5%
Percent Improvement (13-day feed/gain) ([1]; 9 ppm): 4.0%
improvement of feed utilization over untreated controls ([2]; 11 mg. or 99 mg. implanted, six weeks): about 5%
increase in weight gain over untreated controls ([2]; 11 mg. or 99 mg. implanted, six weeks after implantation): ~10%
Average 6-Week Feed/Gain per Pen, AV. ([2]; 1 drug implant): 7.57
Average 6-Week Weight Gain (kg.)/Lamb, AV. ([2]; 1 drug implant): 8.86 kg
Average 6-Week Feed/Gain per Pen ([2]; 1 drug implant): 6.63 and 6.58 and 7.41 and 8.21 and 8.05 and 8.49
Average 6-Week Weight Gain (kg.)/Lamb ([2]; 1 drug implant): 11.25 kg and 9.32 kg and 9.20 kg and 8.63 kg and 8.05 kg and 6.68 kg
Average 6-Week Feed/Gain per Pen, AV. ([2]; 9 drug implants): 7.49
Average 6-Week Weight Gain (kg.)/Lamb, AV. ([2]; 9 drug implants): 8.69 kg
Average 6-Week Feed/Gain per Pen ([2]; 9 drug implants): 6.51 and 6.75 and 7.80 and 8.38 and 7.56 and 7.97
Average 6-Week Weight Gain (kg.)/Lamb ([2]; 9 drug implants): 10.83 kg and 9.60 kg and 8.75 kg and 7.20 kg and 8.53 kg
Average Daily Gain (kg)/Lamb, av. ([3]; 15 ppm in feed): 0.186 kg
Six-Week Feed/Gain, av. ([3]; 15 ppm in feed): 6.611
Average Daily Gain (kg)/Lamb ([3]; 15 ppm in feed): 0.190 kg and 0.187 kg and 0.186 kg and 0.174 kg and 0.195 kg
Six-Week Feed/Gain ([3]; 15 ppm in feed): 6.777 and 6.174 and 6.158 and 7.626 and 6.319
Average Daily Gain (kg)/Lamb, av. ([3]; 60 ppm in feed): 0.208 kg
Six-Week Feed/Gain, av. ([3]; 60 ppm in feed): 6.148
Average Daily Gain (kg)/Lamb ([3]; 60 ppm in feed): 0.211 kg and 0.250 kg and 0.200 kg and 0.193 kg and 0.189 kg
Six-Week Feed/Gain ([3]; 60 ppm in feed): 6.250 and 5.539 and 6.040 and 6.507 and 6.403
change in vivo at 50 ppm ([4]; 50 ppm in diet): 50.1%
change in vivo at 200 ppm ([4]; 200 ppm in diet): 134%
change in vivo at 400 ppm ([4]; 400 ppm in diet): 120%
